Where a name gives a salt, the structure may show the parent alone.
Legend:
nutritional obesity rats [1] = test: Body weight of nutritional obesity rats on high-fat feed, intragastric drug for 30 d (Example 17); type: in vivo, rat; conditions: x ± s; for Body weight(g) (After-experiment) / Body weight(g) increased: Table 1, high-fat feed; for Body weight(g) (After-experiment): after 30 d intragastric administration; for Body weight(g) increased: increase over 30 d of administration; as to Body weight(g) (After-experiment): test concentration or dose not given here; as to Body weight(g) increased: test concentration or dose not given here
Description: (§1) Fucoxanthin group and test animal groups were administrated with same doses of the drugs. The basal feed control group continued to be fed with basal feed, other groups with high-fat feed. The basal feed- and model control groups were intragastric administrated with distilled water, the other, drug-administrated groups with respective doses of drug, the administration were carried out uninterruptedly for 30 d. Each group of the animals were bred in different hutches, the room temperature was controlled within (22±2)° C., using natural illumination, the animals took food and drank freely. The body weights of the animals were measured one time each week, feed-intakes of the rats were also observed and recorded. After 30 days the rats were weighed. Statistical analysis: Variance analysis of the data collected in this experiment was implemented by SAS software package, Dunnett's t-test was used for inter-group comparative analysis, p<0.05 was used as the criterion of statistical significance.

nutritional obesity rats [2] = test: Weight of fat pads around testicles of nutritional obesity rats (Example 18); type: in vivo, rat; conditions: after 30 d administration, x ± s; for Body weight(g) (After-experiment): Table 2
Description: as §1, with “significance. Experimental procedures were the same as in Example 17. […] Statistical analysis was the same as in Example 16.” for “significance.”

nutritional obesity rats [3] = test: Weight of abdomen fat of nutritional obesity rats (Example 20); type: in vivo, rat; conditions: after 30 d administration, x ± s; for Body weight(g) (After-experiment): Table 4
Description: as §1, with “significance. Experimental procedures were the same as in Example 17. […] Statistical analysis was the same as in Example 16.” for “significance.”

[4] = system: nutritional obesity model rats; test: Weight of fat pads around kidneys of nutritional obesity model rats (Example 19); type: in vivo, rat; conditions: after 30 d administration, x ± s; for Body weight(g) (After-experiment): Table 3
Description: as §1, with “significance. Experimental procedures were the same as in Example 17. […] Statistical analysis was the same as in Example 16.” for “significance.”

lab mice = conditions: fucoxanthin as an additive in condensed food, experimental animals; cited from earlier work; also: test concentration or dose not given here
[5] = compared with fucoxanthin; cited from earlier work

CC(=O)OC1CC(C)(C)C(=C=C/C(C)=C/C=C/C(C)=C/C=C/C=C(C)/C=C/C=C(\C)C(=O)CC23OC2(C)CC(OC(=O)CC(O)(CC(=O)O)C(=O)O)CC3(C)C)[C@](C)(O)C1 (stereo partly drawn) [compound 1, fucoxanthin citrate]
Body weight(g) (After-experiment) (nutritional obesity rats [1]): 515.00 ± 29.21ΔΔ g
Body weight(g) increased (nutritional obesity rats [1]): 28.50 ± 1.15ΔΔ g

CC(=O)OC1CC(C)(C)C(=C=C/C(C)=C/C=C/C(C)=C/C=C/C=C(C)/C=C/C=C(\C)C(=O)CC23OC2(C)CC(OC(=O)CCC(=O)O)CC3(C)C)[C@@](C)(O)C1 (stereo partly drawn) [compound 2, fucoxanthin succinate]
Body weight(g) (After-experiment) (nutritional obesity rats [2]): 512.1 ± 21.00 g
Weight fat pads around testicles(g) (nutritional obesity rats [2]): 6.00 ± 0.11ΔΔ g
Weight fat pads around testicles/bw × 100 (nutritional obesity rats [2]): 1.18 ± 0.13ΔΔ
Body weight(g) (After-experiment) (nutritional obesity rats [3]): 516.03 ± 12.15 g
Weight abdomen fat/bw × 100 (nutritional obesity rats [3]): 1.31 ± 0.12ΔΔ
Weight. abdomenfat (g) (nutritional obesity rats [3]): 6.76 ± 0.22ΔΔ g

CC(=O)OC1CC(C)(C)C(=C=C/C(C)=C/C=C/C(C)=C/C=C/C=C(C)/C=C/C=C(\C)C(=O)CC23OC2(C)CC(OC(=O)CCC(=O)O)CC3(C)C)[C@@](C)(O)C1 (stereo partly drawn) [compound 3, fucoxanthin succinate sodium salt]
Body weight(g) (After-experiment) (nutritional obesity rats [2]; succinate sodium salt): 513.1 ± 19.13 g
Weight fat pads around testicles(g) (nutritional obesity rats [2]; succinate sodium salt): 7.00 ± 0.13ΔΔ g
Weight fat pads around testicles/bw × 100 (nutritional obesity rats [2]; succinate sodium salt): 1.20 ± 0.10ΔΔ

CC(=O)OC1CC(C)(C)C(=C=C/C=C/C=C/C(C)=C/C=C/C=C(C)/C=C/C=C(\C)C(=O)CC23OC2(C)CC(OC(=O)CCC(=O)OC[C@H](O)[C@H]2OC(=O)C(O)=C2O)CC3(C)C)[C@@](C)(O)C1 (stereo partly drawn) [compound 4, fucoxanthin succinate-4-vitamin C ester]
Body weight(g) (After-experiment) (nutritional obesity rats [1]): 514.00 ± 30.22ΔΔ g
Body weight(g) increased (nutritional obesity rats [1]): 27.41 ± 1.21ΔΔ g
Body weight(g) (After-experiment) (nutritional obesity rats [2]): 514.00 ± 30.22 g
Weight fat pads around testicles(g) (nutritional obesity rats [2]): 4.00 ± 0.14ΔΔ g
Weight fat pads around testicles/bw × 100 (nutritional obesity rats [2]): 0.70 ± 0.21ΔΔ
Body weight(g) (After-experiment) (nutritional obesity rats [3]): 514.00 ± 30.22 g
Weight abdomen fat/bw × 100 (nutritional obesity rats [3]): 0.80 ± 0.11ΔΔ
Weight. abdomenfat (g) (nutritional obesity rats [3]): 4.11 ± 0.14ΔΔ g

CC(=O)OC1CC(C)(C)C(=C=C/C(C)=C/C=C/C(C)=C/C=C/C=C(C)/C=C/C=C(\C)C(=O)CC23OC2(C)CC(OC(=O)CC(O)(CC(=O)OC[C@H](O)[C@H]2OC(=O)C(O)=C2O)C(=O)O)CC3(C)C)[C@](C)(O)C1 (stereo partly drawn) [compound 7, fucoxanthincitrate5-vitamin C ester]
Body weight(g) (After-experiment) (nutritional obesity rats [1]): 506.00 ± 19.07ΔΔ g
Body weight(g) increased (nutritional obesity rats [1]): 18.21 ± 1.12ΔΔ g

CC(=O)OC1CC(C)(C)C(=C=C/C(C)=C/C=C/C(C)=C/C=C/C=C(C)/C=C/C=C(\C)C(=O)CC23OC2(C)CC(OC(=O)/C=C(/CC(=O)O)C(=O)O)CC3(C)C)[C@](C)(O)C1 (stereo partly drawn) [compound 8, fucoxanthin aconitate]
Body weight(g) (After-experiment) [4]: 518.18 ± 15.21 g
Weight fat pads around kidneys(g) [4]: 4.40 ± 0.34ΔΔ g
Weight fat pads around kidneys/bw × 100 [4]: 0.85 ± 0.12ΔΔ

CC(=O)OC1CC(C)(C)C(=C=C/C(C)=C/C=C/C(C)=C/C=C/C=C(C)/C=C/C=C(\C)C(=O)CC23OC2(C)CC(OC(=O)CCCN(C)C)CC3(C)C)[C@](C)(O)C1 (stereo partly drawn) [compound 9, fucoxanthin di-methylaminobutyrate]
Body weight(g) (After-experiment) [4]: 514.13 ± 13.00 g
Weight fat pads around kidneys(g) [4]: 5.00 ± 0.23ΔΔ g
Weight fat pads around kidneys/bw × 100 [4]: 0.98 ± 0.11ΔΔ

CC(=O)OC1CC(C)(C)C(=C=C/C(C)=C/C=C/C(C)=C/C=C/C=C(C)/C=C/C=C(\C)C(=O)CC23OC2(C)CC(OC(=O)CNC(=O)C(CS)NC(=O)CCC(N)C(=O)O)CC3(C)C)[C@](C)(O)C1 (stereo partly drawn) [compound 10, fucoxanthin glutathione ester]
Body weight(g) (After-experiment) (nutritional obesity rats [3]): 517.00 ± 11.23 g
Weight abdomen fat/bw × 100 (nutritional obesity rats [3]): 1.50 ± 0.14ΔΔ
Weight. abdomenfat (g) (nutritional obesity rats [3]): 7.75 ± 0.20ΔΔ g
Body weight(g) (After-experiment) [4]: 522.08 ± 18.11 g
Weight fat pads around kidneys(g) [4]: 4.00 ± 0.40ΔΔ g
Weight fat pads around kidneys/bw × 100 [4]: 0.75 ± 0.11ΔΔ

CC(=O)OC1CC(C)(C)C(=C=C/C(C)=C/C=C/C(C)=C/C=C/C=C(C)/C=C/C=C(\C)C(=O)CC23OC2(C)CC(OC(=O)[C@@H](O)[C@H](O)C(=O)O)CC3(C)C)[C@](C)(O)C1 (stereo partly drawn) [compound 11, fucoxanthin tartrate]
Body weight(g) (After-experiment) (nutritional obesity rats [1]): 515.00 ± 18.90ΔΔ g
Body weight(g) increased (nutritional obesity rats [1]): 29.25 ± 1.23ΔΔ g
Body weight(g) (After-experiment) (nutritional obesity rats [3]): 515.00 ± 18.90 g
Weight abdomen fat/bw × 100 (nutritional obesity rats [3]): 1.40 ± 0.13ΔΔ
Weight. abdomenfat (g) (nutritional obesity rats [3]): 7.21 ± 0.23ΔΔ g

C\C(C=C=C1C(C)(C)CC(OC(=O)N2CCOCC2)C[C@@]1(C)O)=C/C=C/C(C)=C/C=C/C=C(C)/C=C/C=C(\C)C(=O)CC12OC1(C)CC(OC(=O)N1CCOCC1)CC2(C)C (stereo partly drawn) [compound 12, fucoxanthol bi-morpholino carbamate]
Body weight(g) (After-experiment) (nutritional obesity rats [1]): 500.01 ± 20.10ΔΔ g
Body weight(g) increased (nutritional obesity rats [1]): 12.12 ± 1.25ΔΔ g

CC(=O)OC1CC(C)(C)C(=C=C/C(C)=C/C=C/C(C)=C/C=C/C=C(C)/C=C/C=C(\C)C(=O)CC23OC2(C)CC(OC(=O)CCC(=O)Oc2ccc(/C=C/c4cc(O)cc(O)c4)cc2)CC3(C)C)[C@@](C)(O)C1 (stereo partly drawn) [compound 14, fucoxanthin resveratrol succinate]
Body weight(g) (After-experiment) (nutritional obesity rats [1]): 514.00 ± 22.22ΔΔ g
Body weight(g) increased (nutritional obesity rats [1]): 28.52 ± 1.21ΔΔ g
Body weight(g) (After-experiment) (nutritional obesity rats [2]): 514.00 ± 22.22 g
Weight fat pads around testicles(g) (nutritional obesity rats [2]): 5.00 ± 0.12ΔΔ g
Weight fat pads around testicles/bw × 100 (nutritional obesity rats [2]): 0.90 ± 0.12ΔΔ

CCCCC/C=C\C/C=C\CCCCCCCC(=O)OC1CC(C)(C)C2(CC(=O)/C(C)=C/C=C/C(C)=C/C=C/C=C(C)/C=C/C=C(\C)C=C=C3C(C)(C)CC(OC(C)=O)C[C@@]3(C)O)OC2(C)C1 (stereo partly drawn) [compound 15, fucoxanthin linoleate]
Body weight(g) (After-experiment) (nutritional obesity rats [2]): 520.01 ± 16.88 g
Weight fat pads around testicles(g) (nutritional obesity rats [2]): 6.34 ± 0.55ΔΔ g
Weight fat pads around testicles/bw × 100 (nutritional obesity rats [2]): 1.22 ± 0.11ΔΔ

CC(=O)OC1CC(C)(C)C(=C=C/C(C)=C/C=C/C(C)=C/C=C/C=C(C)/C=C/C=C(\C)C(=O)CC23OC2(C)CC(O)CC3(C)C)[C@](C)(O)C1 (stereo partly drawn) [fucoxanthin, 3′-(Acetyloxy)-6′,7′-didehydro-5,6-epoxy-5,5′,6,6′,7,8-hexahydro-3,5′-dihydroxy-8-oxo-β,β-carotene, reference compound]
Body weight(g) (After-experiment) (nutritional obesity rats [1]): 531.00 ± 20.32Δ g
Body weight(g) increased (nutritional obesity rats [1]): 43.68 ± 19.13Δ g
Body weight(g) (After-experiment) (nutritional obesity rats [2]): 531.00 ± 20.32 g
Weight fat pads around testicles(g) (nutritional obesity rats [2]): 7.32 ± 0.83Δ g
Weight fat pads around testicles/bw × 100 (nutritional obesity rats [2]): 1.38 ± 0.11Δ
addiction or other side effects (lab mice): would not induce the addiction of the experimental animals, or had any other side effects
Body weight(g) (After-experiment) (nutritional obesity rats [3]): 531.00 ± 20.32 g
Weight abdomen fat/bw × 100 (nutritional obesity rats [3]): 1.81 ± 0.13Δ
Weight. abdomenfat (g) (nutritional obesity rats [3]): 9.61 ± 0.12ΔΔ g
Body weight(g) (After-experiment) [4]: 531.00 ± 20.32 g
Weight fat pads around kidneys(g) [4]: 7.42 ± 0.60Δ g
Weight fat pads around kidneys/bw × 100 [4]: 1.42 ± 0.12Δ

C\C(C=C=C1C(C)(C)CC(O)C[C@@]1(C)O)=C/C=C/C(C)=C/C=C/C=C(C)/C=C/C=C(\C)C(=O)CC12OC1(C)CC(O)CC2(C)C (stereo partly drawn) [fucoxanthol, reference compound]
Body weight(g) (After-experiment) (nutritional obesity rats [1]): 527.00 ± 18.89ΔΔ g
Body weight(g) increased (nutritional obesity rats [1]): 39.39 ± 18.11ΔΔ g
Body weight(g) (After-experiment) (nutritional obesity rats [2]): 527.00 ± 18.89 g
Weight fat pads around testicles(g) (nutritional obesity rats [2]): 7.00 ± 0.67ΔΔ g
Weight fat pads around testicles/bw × 100 (nutritional obesity rats [2]): 1.25 ± 0.13ΔΔ
weight-reducing activity [5]: much stronger than fucoxanthin
Body weight(g) (After-experiment) (nutritional obesity rats [3]): 527.00 ± 18.89 g
Weight abdomen fat/bw × 100 (nutritional obesity rats [3]): 1.60 ± 0.11ΔΔ
Weight. abdomenfat (g) (nutritional obesity rats [3]): 7.91 ± 0.11ΔΔ g
Body weight(g) (After-experiment) [4]: 527.00 ± 18.89 g
Weight fat pads around kidneys(g) [4]: 7.0 ± 0.58ΔΔ g
Weight fat pads around kidneys/bw × 100 [4]: 1.20 ± 0.10ΔΔ

fucoxanthin citrate sodium salt [compound 6]
Body weight(g) (before-experiment) (nutritional obesity rats [1]; SD male rats, after 1 month high-fat feed, before drug administration (baseline), 10 rats per group): 485.89 ± 18.99 g
Body weight(g) (After-experiment) (nutritional obesity rats [1]): 507.00 ± 20.11ΔΔ g
Body weight(g) increased (nutritional obesity rats [1]): 20.32 ± 1.21ΔΔ g

fucoxanthin succinate 4-vitamin Cester sodium salt [compound 5]
Body weight(g) (After-experiment) (nutritional obesity rats [3]): 504.01 ± 18.23 g
Weight abdomen fat/bw × 100 (nutritional obesity rats [3]): 0.71 ± 0.10ΔΔ
Weight. abdomenfat (g) (nutritional obesity rats [3]): 3.58 ± 0.21ΔΔ g
Body weight(g) (After-experiment) [4]: 513.15 ± 11.00 g
Weight fat pads around kidneys(g) [4]: 7.00 ± 0.32ΔΔ g
Weight fat pads around kidneys/bw × 100 [4]: 1.12 ± 0.10ΔΔ
